By viability, T/C is commonly meant the result in the treated group divided by that in the control group, in per cent. In general, IC50 refers to the concentration needed to halve the response being measured.

Values joined by “and” are separate entries in the source; they are usually repeats but may differ in a detail not shown here. Identical values can stand only once.

The values below come from PubChem BioAssay AID2060503 (Molecular Pharmacology Branch, DTP, NCI, 2025).

The test system of this test is 817829-284-R-J1-PDC complex spheroids, viability. Nature of the test: Anticancer human tumor 817829-284-R-J1-PDC patient-derived colon adenocarcinoma cell line growth inhibition [GQUAD]. The conditions noted are these: for viability, T/C: stronger effect = lower value; for IC50: curve of compound. The procedure, abridged: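 Multi-cell-type spheroids of tumor cells with HUVEC and mesenchymal stem cells, treated with drug combinations. Concentrations descend in half-log steps from near clinical Cmax, or from 10 microM where Cmax is unknown; viability read-out.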
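Also: spheroids exposed to agents for 7 days before readout.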
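For viability, T/C in this document: percent viability relative to DMSO vehicle control taken as 100%.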

Consider `COc1ncnc(C2CC2)c1-c1ncc2cnn(Cc3ccc(-c4nc(C(F)(F)F)cn4C(C)C)cc3)c2n1`, for which the IC50 was above 10 µM. The viability, T/C (compound 0.0316 µM) was 96.6% and 97.8% and 103%. The viability, T/C (compound 0.1 µM) was 97.4% and 111% and 113%. The viability, T/C (compound 0.316 µM) was 99.2% and 107% and 110%. Under “compound 1 µM”, the viability, T/C is 84.8% and 117% and 106%. The viability, T/C (compound 3.16 µM) is 102% and 106% and 111%. Also, the viability, T/C (compound 10 µM) is 116% and 114% and 115%.

Turning to `Nc1ccn(C2OC(CO)C(O)C2(F)F)c(=O)n1` (centres undefined), the half-inhibitory concentration (IC50) is below 0.0316 µM. The viability, T/C (compound 0.0316 µM) was 24.6% and 9.45% and 15.3%. In addition, where the note is “compound 0.1 µM”, the viability, T/C was 5.55% and 8% and 4.56%. Further, the viability, T/C (compound 0.316 µM) was 7.44% and 8.2% and 6.55%. Besides, under “compound 1 µM”, the viability, T/C is 5.74% and 7.67% and 5.48%. Besides, under “compound 3.16 µM”, the viability, T/C is 6.14% and 6.82% and 5.88%. Besides, the viability, T/C (compound 10 µM) was 3.68% and 3.93% and 3.72%.
